Experimental data taken from patent US9266838B2, “Substituted (E)-N′-(1-phenylethylidene)benzohydrazide analogs as histone demethylase inhibitors” (University of Utah Research Foundation, priority 2011, dated 2016).

Columns and labels:
heme oxygenase 1 (HMOX1) = assay: Expression array experiments (transcriptional changes); assay type: cell-based; settings: multiple cell lines; data not shown
T-47D cells = assay: Cell viability assay (ATPlite), T-47D; assay type: cell-based; settings: Homo sapiens, T47D, 96 hours, read-out: Cell Growth, IC50
Method: Cells were cultured according to the procedures provided. […] Cells were cultured at 37° C. and 5% CO2.
Cell viability was determined using ATPlite™ Luminescence Assay System (PerkinElmer Inc., Waltham, Mass.) using the various cell-lines described above and in Table 4. Briefly, cells were seeded in 96-well plates and then treated with different concentrations of inhibitor (0.1% final DMSO concentration). After 96-hours of incubation, ATPlite detection reagent was added directly to the culture well. Luminescence was read 5 minutes later on an Envision microplate reader.
(§1) IC50 values are determined using GraphPad Prism 5 software. The data were entered as an X-Y plot into the software as percent inhibition for each concentration of the drug. The concentration values of the drug were log transformed and the nonlinear regression was carried out using the “sigmoidal dose-response (variable slope)” option within the GraphPad software to model the data and calculate IC50 values.

LSD1 = LSD1 (Homo sapiens, UniProt O60341); assay: LSD1 histone demethylase assay (LSD1 Inhibitor Screening Assay Kit); assay type: biochemical
Method: Briefly, test compounds were diluted to 20× the desired test concentration in 100% DMSO and 2.5 μL of the diluted drug sample was added to a black 384-well plate. The LSD1 enzyme stock was diluted 17-fold with assay buffer and 40 μM of the diluted LSD1 enzyme was added to the appropriate wells.
as §1

Row | SMILES | IC50 (LSD1) | further results
1 | C/C(=N\NC(=O)c1cccc(S(=O)(=O)N2CCOCC2)c1)c1cc(Cl)ccc1O [Compound 12, (E)-N′-(1-(5-chloro-2-hydroxyphenyl)ethylidene)-3-(morpholinosulfonyl)benzohydrazide] |  | transcriptional change of HMOX1 (heme oxygenase 1 (HMOX1)): one of the most consistently up-regulated genes
2 | C/C(=N\NC(=O)c1cccc(S(=O)(=O)N2CCOCC2)c1)c1cccc(Cl)c1F [Compound 13, (E)-N′-(1-(3-chloro-2-fluorophenyl)ethylidene)-3-(morpholinosulfonyl)benzohydrazide] |  | IC50 (T-47D cells): > 10000 nM
3 | C/C(=N\NC(=O)c1cccc(S(=O)(=O)N2CCC(C)CC2)c1)c1cc(Cl)ccc1O [Compound 26, (E)-N′-(1-(5-chloro-2-hydroxyphenyl)ethylidene)-3-((4-methylpiperidin-1-yl)sulfonyl)benzohydrazide] | 9.5 nM | 
4 | CNS(=O)(=O)c1cccc(C(=O)N/N=C(\C)c2cc(Cl)ccc2O)c1 [Compound 29, (E)-3-(2-(1-(5-chloro-2-hydroxyphenyl)ethylidene)hydrazinecarbonyl)-N-methylbenzenesulfonamide] | 8.7 nM | 
5 | C/C(=N\NC(=O)c1cccc(S(=O)(=O)N2CCN(C)CC2)c1)c1cc(Cl)ccc1O [Compound 35, (E)-N′-(1-(5-chloro-2-hydroxyphenyl)ethylidene)-3-((4-methylpiperazin-1-yl)sulfonyl)benzohydrazide] | < 10 nM | 
6 | O=C(c1cccc(S(=O)(=O)N2CCOCC2)c1)n1ccc(-c2cc(Cl)ccc2O)n1 [Compound 38, (3-(5-chloro-2-hydroxyphenyl)-1H-pyrazol-1-yl)(3-(morpholinosulfonyl)phenyl)methanone] | > 3000 nM | 
